The source of these data is patent publication US20230263758A1, “COMPOSITIONS OF EDTA HAVING ACTIVITY AGAINST PLANKTONIC AND BIOFILM CELLS OF CLINICALLY RELEVANT PATHOGENS” (SterileCare Inc., priority 2022, published 2023).

For one experiment, the system named is S. epidermidis SK9. The experiment can be described thus: Checkerboard titration, FICI. It is filed as cell-based, Staphylococcus epidermidis. The settings on record: EDTA + ethanol checkerboard. The procedure:
(§1) A fourth composition and solution included tetrasodium EDTA with ethanol or chlorhexidine HCl. This fourth composition and solution were created using checkerboard titration methods using micro broth dilution in 96-well microtiter plates. The concentrations of antimicrobials used were based on previously determined MIC values. Briefly, 200 μL of two-fold dilutions of tetrasodium EDTA and ethanol or chlorhexidine HCl were prepared in MH or MH II broth with standardized cell suspension. […] Microtiter plates were incubated at 37° C. for 24 h, and the results were analyzed. Each test was performed in duplicate and included a growth control without adding any antimicrobials.

The test system of a further experiment is MRSA ON184. As to the kind of experiment: Checkerboard titration, FICI. The settings on record: EDTA + ethanol checkerboard. In kind it is cell-based, Staphylococcus aureus. The procedure:
as §1

The test system of a further experiment is Candida albicans SK4b. The experiment can be described thus: Checkerboard titration, FICI. In kind it is cell-based. Conditions: C. albicans SK4b; EDTA + ethanol checkerboard. The protocol: as §1
The subject of the next experiment is Escherichia coli ON29. The experiment can be described thus: Checkerboard titration, FICI. The settings on record: E. coli ON29; EDTA + ethanol checkerboard. It is filed as cell-based. The procedure:
as §1

A further experiment concerns Proteus mirabilis ON153. As to the kind of experiment: Checkerboard titration, FICI. In kind it is cell-based. The settings on record: P. mirabilis ON153; EDTA + ethanol checkerboard. The protocol:
as §1

The test system of experiment [1] is Pseudomonas aeruginosa SK1. The experiment can be described thus: Checkerboard titration, FICI. In kind it is cell-based. The settings on record: P. aeruginosa SK1; EDTA + ethanol checkerboard. The procedure:
as §1

A further experiment relates to Serratia marcescens SK2. The experiment can be described thus: Checkerboard titration, FICI. In kind it is cell-based. The settings on record: S. marcescens SK2; EDTA + ethanol checkerboard. The protocol:
as §1

Experiment [2] has as its system Staphylococcus aureus ON89. The experiment can be described thus: Checkerboard titration, FICI. It is filed as cell-based. Conditions: S. aureus ON89; EDTA + ethanol checkerboard. The procedure:
as §1

Experiment [3] concerns Staphylococcus epidermidis ON170. The experiment can be described thus: Checkerboard titration, FICI. It is filed as cell-based. Conditions: S. epidermidis ON170; EDTA + ethanol checkerboard. The procedure: as §1
Experiment [4] relates to Stenotrophomonas maltophilia ON17. As to the kind of experiment: Checkerboard titration, FICI. The settings on record: S. maltophilia ON17; EDTA + ethanol checkerboard. It is filed as cell-based. The procedure: as §1
A further experiment deals with E. coli SK2. The experiment can be described thus: Checkerboard titration, FICI. In kind it is cell-based, Escherichia coli. The settings on record: EDTA + ethanol checkerboard. The protocol:
as §1

For another experiment, the system named is C. albicans ON47. The experiment can be described thus: Checkerboard titration, FICI. It is filed as cell-based, Candida albicans. The settings on record: EDTA + ethanol checkerboard. The procedure:
as §1

Experiment [5] has as its system 48-h-old biofilms of bacterial and fungal strains. The experiment can be described thus: MBEC assay, summary, 24 h exposure of 48-h-old biofilms. It is filed as cell-based. The procedure: A biofilm cultivation cell composition was provided. This fifth composition was created using an MBEC Assay® biofilm inoculator, consisting of a polystyrene lid with 96 downward-protruding pegs and a corresponding base used to grow biofilms. A standardized inoculum was diluted in an appropriate biofilm growth medium to achieve a viable cell count of 1.5×10^6 CFU/mL of bacterial cells or 5×10^5 CFU/mL of fungal cells. Then, 150 μL of this inoculum was transferred into each appropriate well, and the peg lids were inserted into the microtiter plates. The plates were sealed with Parafilm and were incubated at optimum temperature for 48 h with slight rocking for bacteria and shaking at 200 rpm for fungal strains. After incubation, the peg lid was removed from the base and rinsed twice with sterile phosphate-buffered saline (PBS) for 2 min to remove loosely attached non-sessile cells. Before the antimicrobial challenge, the pegs in column 1 (n=8) were considered the biofilm growth control; these pegs were removed from the lids, placed into 200 μL of recovery medium, and analyzed for starting biofilm cell numbers as described below. […] After the antimicrobial challenge, the pegs were rinsed twice with sterile PBS for 2 min and placed into a new 96-well plate containing 200 μL of recovery medium. The recovery plates were sealed with Parafilm, and biofilm cells were dislodged from the pegs by sonication for 30 min with a Branson 3510 bath sonicator. The biofilm cells in the recovery medium were serially diluted, and a drop dilution assay was performed to enumerate the viable cells. MBEC values were determined as the minimum concentration of antimicrobials that yielded a viable cell count at or lower than the 125 CFU/mL detection limit.

The test system of experiment [6] is 48-h old biofilms of bacterial and fungal test organisms. As to the kind of experiment: Rapid biofilm eradication, 2-h exposure. In kind it is cell-based. Conditions: each agent alone at its MBEC. The protocol:
Determining rapid biofilm eradication by tetrasodium EDTA, ethanol, and chlorhexidine HCl alone and in combination was performed. After biofilm formation, control pegs (n=6) were removed and analyzed to determine the starting biofilm cell numbers via the drop dilution method. The 48-h old biofilms on the pegs were exposed to different concentrations of test antimicrobials, dissolved in an appropriate growth medium, for two h to evaluate their efficacy alone and in combination. […] Following treatment, pegs were washed twice with sterile PBS, and the biofilm cells were dislodged into recovery medium and enumerated as described above.
The method for rapid biofilm eradication ability of test antimicrobials alone and in combination against 48-h-old biofilms within two h exposure time included (1) choosing different concentrations of test antimicrobials to assess their potency in eradicating preformed biofilms of study organisms within two h. Then (2) the quantitative recovery from biofilms following exposure to the antimicrobial solutions for bacterial strains (FIGS. 4A-4C) and fungal strains (FIG. 5) was evaluated.

Molecules are shown by their SMILES.

For `CCO` [Ethanol, ethanol, reference compound], the “Inhibitory concentration in combination” value with S. epidermidis SK9 is on record as 0.4 % w/v; with MRSA ON184, 0.4 % w/v; in the experiment with Candida albicans SK4b, 1.6 % w/v; in the experiment with Escherichia coli ON29, 3.125 % w/v; in the experiment with Proteus mirabilis ON153, 1.6 % w/v; in experiment [1], 3.125 % w/v. For the same compound, the “Inhibitory concentration in combination” value is reported as 3.125 % w/v in the experiment on Serratia marcescens SK2; 0.4 % w/v in experiment [2]; 0.4 % w/v in experiment [3]; 0.4 % w/v in experiment [4]; 6.25 % w/v in the experiment with E. coli SK2; 0.4 % w/v in the experiment on C. albicans ON47. The “Concentration alone able to eradicate all established biofilms following 24 h of treatment” value in [5] amounted to 5%. Further, in [6], the “Eradication of preformed biofilms after 2 h of exposure” value is given as “failed to eradicate”.
